The source of these data is BindingDB's records for doi:10.1016/j.ejmech.2020.113107 (Yantai University, 2021).

A short description of data set [1]: Reversal of P-glycoprotein mediated multidrug resistance in human KBV cells assessed as reversal of resistance to paclitaxel-induced cytotoxicity by measuring paclitaxel IC50 at 10 uM measured after 72 hrs by MTT assay.
The nature of data set [2]: Reversal of P-glycoprotein mediated multidrug resistance in human KBV cells assessed as reversal of resistance to vincristine-induced cytotoxicity by measuring vincristine IC50 at 5 uM measured after 72 hrs by MTT assay. For orientation: Formazan colour is commonly taken as a measure of viable cells.
A short description of data set [3]: Reversal of P-glycoprotein mediated multidrug resistance in human MCF-7T cells assessed as reversal of resistance to vincristine-induced cytotoxicity by measuring vincristine IC50 at 5 uM measured after 72 hrs by MTT assay.
A short description of data set [4]: Reversal of P-glycoprotein mediated multidrug resistance in human MCF-7T cells assessed as reversal of resistance to paclitaxel-induced cytotoxicity by measuring paclitaxel IC50 at 5 uM measured after 72 hrs by MTT assay.
Data set [5] in a line: Reversal of P-glycoprotein mediated multidrug resistance in human KBV cells assessed as reversal of resistance to vincristine-induced cytotoxicity by measuring vincristine IC50 at 10 uM measured after 72 hrs by MTT assay.
Data set [6] can be described thus: Reversal of P-glycoprotein mediated multidrug resistance in human MCF-7T cells assessed as reversal of resistance to paclitaxel-induced cytotoxicity by measuring paclitaxel IC50 at 10 uM measured after 72 hrs by MTT assay.
Data set [7] in a line: Reversal of P-glycoprotein mediated multidrug resistance in human MCF-7T cells assessed as reversal of resistance to vincristine-induced cytotoxicity by measuring vincristine IC50 at 10 uM measured after 72 hrs by MTT assay.
The nature of data set [8]: Reversal of P-glycoprotein mediated multidrug resistance in human KBV cells assessed as reversal of resistance to paclitaxel-induced cytotoxicity by measuring paclitaxel IC50 at 5 uM measured after 72 hrs by MTT assay.

The structures appear in SMILES notation.

Consider `COc1cc2c(cc1OC)CN(CCc1ccc(NC(=O)c3cc(OC)c(OC)cc3NC(=O)c3cnc4ccccc4c3)cc1)CC2`, for which the IC50 (usually the point on the concentration scale where inhibition reaches its midpoint) was determined as 4.5 nM in data set [1]; 3.3 nM in data set [2]; 0.71 nM in data set [3]; 3.3 nM in data set [4]; 2.1 nM in data set [5]; 0.26 nM in data set [6]. Further, the IC50 amounted to 0.22 nM in data set [7] and 7.6 nM in data set [8].
Regarding `CC1(C)CC[C@]2(C(=O)OCc3ccccc3)CC[C@]3(C)C(=CC[C@@H]4[C@@]5(C)Cc6nccnc6[C@@](C)(CO)[C@@H]5CC[C@]43C)[C@@H]2C1`, the IC50 in data set [1] turned out to be 16 nM; in data set [2] it was 17 nM; in data set [3], 6.9 nM; in data set [4], 13 nM; in data set [5], 2.2 nM; in data set [6], 1.5 nM. Besides, the IC50 in data set [7] amounted to 0.03 nM; in data set [8], 59 nM.
Take `CC1(C)CC[C@]2(C(=O)OCc3ccccc3)CC[C@]3(C)C(=CC[C@@H]4[C@@]5(C)Cc6nccnc6[C@@](C)(COC(=O)CCC(=O)OCCOCCOCCOCCO)[C@@H]5CC[C@]43C)[C@@H]2C1`: the half-inhibitory concentration (IC50) in data set [1] was found to be 4.6 nM; in data set [2] it was 4 nM; in data set [3], 5.3 nM; in data set [4], 5.4 nM; in data set [5] it was 0.79 nM; in data set [6], 0.89 nM. For the same molecule, the 50% inhibitory concentration (IC50) in data set [7] came to 0.04 nM; in data set [8], 22 nM.
